Test results as given in patent publication US20080027003A1, “Peptides Useful for Treating Gnrh Associated Diseases” (CurePeptide Ltd., priority 2004, published 2008).
Like-named read-outs stand apart in the source and are kept apart here. Non-standard residues stand in square brackets, D forms with d. Residues, ends and D or L forms follow the SMILES beside them. *: point of attachment. Palmitoyl = CCCCCCCCCCCCCCCC(=O)*

How the values were obtained:
[1] = tested on: female athymic nude mice NCr-nu; test: Total tolerated dosage (TTD), single injection; format: in vivo; settings: observed 14 days
Procedure: The total tolerated dosage of peptide by mice administered with a single injection was tested.
The test compounds were administered to 10 female athymic nude mice NCr-nu (Charles River Laboratories, Wilmington, Mass.) as a single injection at the following dosages and routes:
Peptide X was injected intra-peritonealy (IP) at 400, 200, and 100 mg/kg.
Peptide NLS-E was tested intra-venously (IV) at 400, 200, 100, 50 and 25 mg/kg
Different injection volumes of a stock solution at a concentration of 20 mg/ml were used to administer the desired dosages (injection volumes of 0.05, 0.1, and 0.2 ml/10 g body, respectively) The carrier was water for injection at pH 7. […] Individual body weights were measured twice a week.

MDA-MB-231 = format: cell-based, human; settings: 24 h
Procedure: (§1) Hemacolor assay—A comparative study was effected between peptides GnRH—X and NLS-GnRH-E on three adenocarcinoma cell lines: MDA-MB-231 (breast) HCT-116 and Colo-205 (colon), described in Example 5 above. Briefly, cells were plated in 96 well plates and allowed to adhere to the plates. Thereafter, various concentrations of GnRH and NLS-GnRH peptides were incubated with the adhered cells for 24 h. To quantify the extent of damage to the cells by the peptides, the Hemacolor assay was effected as described in Example 5. Viable cells which remained adhered to the 96 plastic plates were fixed and stained. Dye was extracted from the plate by addition of 0.5% SDS in PBS (100 μl) with vigorous mixing. Plates were quantified at 650 nm by spectrophotometer (ELISA reader). Cell viability of ≧95% by Trypan blue exclusion from 400 cells was a prerequisite for each experiment. Note, the color intensity is proportional to the extent of the remaining viability. Data was calculated as EC50, which is defined as the concentration (in μM) of analog that provokes a response half way between the baseline (Bottom=control) and maximum response (Top).

HCT-116 = format: cell-based, human; settings: 24 h
Procedure: as §1

Colo-205 = format: cell-based, human; settings: 24 h
Procedure: as §1

[2] = tested on: female athymic NCr-nu nude mice; test: Maximal tolerated dosage (MTD), twice a day for 14 consecutive days; format: in vivo; settings: for mice that died: five mice per group
Procedure: The maximum tolerated dosage (MTD) of the test compounds was tested when administered twice a day for 14 consecutive days.
A total of 50 female athymic NCr-nu nude mice (obtained as mentioned in Example 10a) were used as follows: five groups of mice with five mice per group per compound. Peptides dissolved in water at pH 7 (the vehicle) were evaluated at four dosages (The dosages selected were derived from the results of the TTD experiment, Example 10a):
Peptide X was injected IP at 20 mg/kg/injection for 7 days, followed by IP injections at […] 10, 5, 2.5 mg/kg/injection for 7 days followed by 30, 15 and 7.5 mg/kg, for 14 days respectively.
Peptide NLS-E was tested at 10, 5, 2.5, and 1.25 mg/kg/injection followed by injection at 30, 15, 7.5 and 3.75 mg/kg respectively. Injections were given IV except in the groups treated with 10/30 and 5/15 mg/kg/injection, where injections were switched to IP route on day 10 of treatment.
Additionally, one vehicle-treated control group of five mice per compound was included in the experiment. […] The MTD study was terminated on Day 29.
Individual body weights were measured twice a week.

[3] = tested on: Colo-205 adenocarcioma cell line; test: Growth inhibitory effect by Hemacolor assay on Colo-205 (Example 7); format: cell-based, human
From the text: Peptides were synthesized as described in Example 6 above.
Table 10 below summarizes the concentration of the various peptides required to obtain 50% viability, or to destroy 50% of the tumor cells, as derived from the hemacolor test (FIGS. 3 and 4a-c). Of note, the higher the concentration of peptide required, the poorer the potency of the analog.

[4] = read-out: Concentration required to obtain 50% viability
[5] = read-out: Concentration [M] × 10^−6 (derived from table 10)

Row | Compound | EC50 (MDA-MB-231) | EC50 (HCT-116) | EC50 (Colo-205) | Activity with respect to NLS-E (%) [3] | EC50 [3, 4] | EC50 [3, 5] | also measured
1 | CCCCCCCCCCCCCCCC(=O)N1CCC[C@H]1C(=O)NCC(=O)N[C@H](Cc1ccccc1)C(=O)N1CCC[C@H]1C(=O)N[C@@H](CO)C(=O)N[C@@H](Cc1ccc(O)cc1)C(=O)N[C@H](CCCCN)C(=O)N[C@@H](CC(C)C)C(=O)N[C@@H](CCCNC(=N)N)C(=O)N1CCC[C@H]1C(=O)NCC(N)=O [SEQ ID NO: 2, Palm-Pro-Gly-D-Phe-Pro-Ser-Tyr-D-Lys-Leu-Arg-Pro-Gly-NH2] (Palmitoyl-PG[dF]PSY[dK]LRPG-NH2) | 400 µM | 750 µM | 200 µM | – | – | – | lethality after single injection ([1]; IP, 100 mg/kg): stayed alive; lethality after single injection ([1]; IP, 200 mg/kg): lethal; lethality after single injection ([1]; IP, 400 mg/kg): lethal; mice that died ([2]; 10/30 mg/kg): one; mice that died ([2]; IP, 20/60 mg/kg): Three
2 | CCCCCCCCCCCCCCCC(=O)N[C@H](CCCCNC(=O)[C@@H](NC(=O)[C@H](CCCCN)NC(=O)[C@H](CCCNC(=N)N)NC(=O)[C@H](CCCCN)NC(=O)[C@H](CCCCN)NC(=O)[C@H](CCCCN)NC(=O)[C@@H]1CCCN1)C(C)C)C(=O)N1CCC[C@H]1C(=O)NCC(=O)N[C@H](Cc1ccccc1)C(=O)N1CCC[C@H]1C(=O)N[C@@H](CO)C(=O)N[C@@H](Cc1ccc(O)cc1)C(=O)N[C@H](CCCCN)C(=O)N[C@@H](CC(C)C)C(=O)N[C@@H](CCCNC(=N)N)C(=O)N1CCC[C@H]1C(=O)NCC(N)=O [SEQ ID NO: 33, Palm-D-Lys(H-Pro-Lys-Lys-Lys-Arg-Lys-Val)-Pro-Gly-D-Phe-Pro-Ser-Tyr-D-Lys-Leu-Arg-Pro-Gly-NH2] | 350 µM | 320 µM | 68 µM | – | – | – | lethality after single injection ([1]; IV, 25 mg/kg): stayed alive; lethality after single injection ([1]; IV, 50 mg/kg): stayed alive; lethality after single injection ([1]; IV, 100 mg/kg): lethal; lethality after single injection ([1]; IV, 200 mg/kg): lethal; lethality after single injection ([1]; IV, 400 mg/kg): lethal; mice that died ([2]; IV injected, all dosages): None; comparative toxicity ([2]; repeated dosing in mice): less toxic than peptide X
3 | Palm-D-Lys-Gly-D-Phe-Pro-Ser-Tyr-D-Lys-Leu-Arg-Pro-Gly-NH2 (Palmitoyl-[dK]G[dF]PSY[dK]LRPG-NH2; SMILES CCCCCCCCCCCCCCCC(=O)N[C@H](CCCCN)C(=O)NCC(=O)N[C@H](Cc1ccccc1)C(=O)N1CCC[C@H]1C(=O)N[C@@H](CO)C(=O)N[C@@H](Cc1ccc(O)cc1)C(=O)N[C@H](CCCCN)C(=O)N[C@@H](CC(C)C)C(=O)N[C@@H](CCCNC(=N)N)C(=O)N1CCC[C@H]1C(=O)NCC(N)=O) [SEQ ID NO: 10] | – | – | – | 12.5% | 5e-05 M | – | –
4 | Palm-D-Lys-Pro-Gly-D-Phe-Pro-Ser-Tyr-D-Lys-Leu-Arg-Pro-Gly-NH2 (Palmitoyl-[dK]PG[dF]PSY[dK]LRPG-NH2; SMILES CCCCCCCCCCCCCCCC(=O)N[C@H](CCCCN)C(=O)N1CCC[C@H]1C(=O)NCC(=O)N[C@H](Cc1ccccc1)C(=O)N1CCC[C@H]1C(=O)N[C@@H](CO)C(=O)N[C@@H](Cc1ccc(O)cc1)C(=O)N[C@H](CCCCN)C(=O)N[C@@H](CC(C)C)C(=O)N[C@@H](CCCNC(=N)N)C(=O)N1CCC[C@H]1C(=O)NCC(N)=O) [SEQ ID NO: 9] | – | – | – | 16% | 3.5e-05 M | 3.5e-05 M | Activity with respect to NLS peptide (%) ([3]; relative to the corresponding NLS-conjugated peptide): 16%
5 | Palm-Pro-Gly-D-Phe-Ala-Ser-Tyr-D-Lys-Leu-Arg-Pro-Gly-NH2 (Palmitoyl-PG[dF]ASY[dK]LRPG-NH2; SMILES CCCCCCCCCCCCCCCC(=O)N1CCC[C@H]1C(=O)NCC(=O)N[C@H](Cc1ccccc1)C(=O)N[C@@H](C)C(=O)N[C@@H](CO)C(=O)N[C@@H](Cc1ccc(O)cc1)C(=O)N[C@H](CCCCN)C(=O)N[C@@H](CC(C)C)C(=O)N[C@@H](CCCNC(=N)N)C(=O)N1CCC[C@H]1C(=O)NCC(N)=O) [SEQ ID NO: 16] | – | – | – | 16% | 3.5e-05 M | – | –
6 | Palm-Pro-Gly-D-Phe-Pro-Ser-Tyr-D-Lys(H-Pro-Lys-Lys-Lys-Arg-Lys-Val)-Leu-Arg-Pro-Gly-NH2 [SEQ ID NO: 32] | – | – | – | 50% | 1e-05 M | 1e-05 M | –
